Values joined by “and” are separate entries in the source; they are usually repeats but may differ in a detail not shown here. Equal values may be shown once. Inconclusive results and toxic doses are left out. Cut-off read from the data, not from the text of the source: active = T/C of 150% or more; inactive = T/C below 125%.
System: L1210 leukemia ip in BDF1 mice, survival T/C
Experiment: NCI In Vivo Anticancer Drug Screen. Data for tumor model L1210 Leukemia (intraperitoneal) in B6D2F1 (BDF1) mice
Conditions: endpoint: mean survival time, higher = longer survival
Procedure, shortened: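 Survival endpoint. Drug-treated group vs vehicle group, expressed as T divided by C. Tumor passaged by transplantation.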

[1] = dose: 100.0 mg/kg/injection, schedule: Q04DX003 (ip), vehicle: Klucel (hydroxypropylcellulose) (HPC)
[2] = dose: 200.0 mg/kg/injection, schedule: Q04DX003 (ip), vehicle: Klucel (hydroxypropylcellulose) (HPC)
[3] = dose: 100.0 mg/kg/injection, schedule: Q01DX009 (ip), vehicle: Klucel (hydroxypropylcellulose) (HPC)
[4] = dose: 200.0 mg/kg/injection, schedule: Q01DX009 (ip), vehicle: Klucel (hydroxypropylcellulose) (HPC)
[5] = dose: 75.0 mg/kg/injection, schedule: Q01DX001 (ip), vehicle: saline
[6] = dose: 100.0 mg/kg/injection, schedule: Q04DX003 (ip), vehicle: saline

Measured: T/C

Nc1cccc(C(=O)O)c1C(=O)O
inactive: dose: 6.25 mg/kg/injection, schedule: Q01DX009 (ip), vehicle: saline with Tween-80 100 % of control | dose: 12.5 mg/kg/injection, schedule: Q01DX009 (ip), vehicle: saline with Tween-80 96 % of control | dose: 25.0 mg/kg/injection, schedule: Q01DX009 (ip), vehicle: saline with Tween-80 91 % of control | dose: 75.0 mg/kg/injection, schedule: Q01DX001 (ip), vehicle: carboxymethylcellulose (CMC) 91 % of control | [1] 100 % of control | dose: 150.0 mg/kg/injection, schedule: Q01DX001 (ip), vehicle: carboxymethylcellulose (CMC) 94 % of control | [2] 91 % of control

Cc1ccc(Cl)cc1NC(=O)C(c1ccccc1)c1ccccc1
inactive: [3] 95 % of control | [1] 90 % of control | [4] 94 % of control | [2] 96 % of control | dose: 400.0 mg/kg/injection, schedule: Q01DX009 (ip), vehicle: Klucel (hydroxypropylcellulose) (HPC) 95 % of control | dose: 400.0 mg/kg/injection, schedule: Q04DX003 (ip), vehicle: Klucel (hydroxypropylcellulose) (HPC) 88 % of control

Cc1ccc(N2C(=O)C=C(c3ccccc3)C2=O)cc1
inactive: dose: 75.0 mg/kg/injection, schedule: Q04DX003 (ip), vehicle: Klucel (hydroxypropylcellulose) (HPC) 104 % of control | dose: 150.0 mg/kg/injection, schedule: Q04DX003 (ip), vehicle: Klucel (hydroxypropylcellulose) (HPC) 105 % of control | dose: 300.0 mg/kg/injection, schedule: Q04DX003 (ip), vehicle: Klucel (hydroxypropylcellulose) (HPC) 104 % of control

N#C/C(=N/O)c1ccccn1
inactive: [3] 96 % of control | dose: 100.0 mg/kg/injection, schedule: Q01DX009 (ip), vehicle: saline 100 % of control | [4] 100 % of control | dose: 200.0 mg/kg/injection, schedule: Q01DX009 (ip), vehicle: saline 107 % of control | dose: 400.0 mg/kg/injection, schedule: Q01DX009 (ip), vehicle: saline 92 % of control

CC(C)=CCNc1nc(=O)[nH]c2nc[nH]c12
inactive: [5] 92 % of control | dose: 150.0 mg/kg/injection, schedule: Q01DX001 (ip), vehicle: saline 88 % of control | dose: 300.0 mg/kg/injection, schedule: Q01DX001 (ip), vehicle: saline 88 % of control

O=C(Nc1ccccc1F)N(Cc1ccccc1)Cc1ccccc1
inactive: dose: 50.0 mg/kg/injection, schedule: Q01DX009 (ip), vehicle: Klucel (hydroxypropylcellulose) (HPC) 96 % of control | [3] 104 % of control | [4] 101 % of control

O=C(COc1ccc(Cl)cc1Cl)Nc1ccccc1[N+](=O)[O-]
inactive: dose: 100.0 mg/kg/injection, schedule: Q04DX002 (ip), vehicle: saline 92 % of control | dose: 200.0 mg/kg/injection, schedule: Q04DX002 (ip), vehicle: saline 92 % of control | dose: 400.0 mg/kg/injection, schedule: Q04DX002 (ip), vehicle: saline 92 % of control

CC/C(=C(\CC)c1ccc(OCC(=O)N(CCCl)CCCl)cc1)c1ccc(OCC(=O)N(CCCl)CCCl)cc1
inactive: dose: 5.0 mg/kg/injection, schedule: Q04DX002 (ip), vehicle: saline 105 % of control | dose: 10.0 mg/kg/injection, schedule: Q04DX002 (ip), vehicle: saline 97 % of control | dose: 20.0 mg/kg/injection, schedule: Q04DX002 (ip), vehicle: saline 94 % of control

Clc1ccc(/C=N/N=C(N/N=C/c2ccc(Cl)cc2Cl)N/N=C/c2ccc(Cl)cc2Cl)c(Cl)c1
inactive: dose: 15.0 mg/kg/injection, schedule: Q01DX Z (ip), vehicle: carboxymethylcellulose (CMC) 88 % of control | dose: 30.0 mg/kg/injection, schedule: Q01DX Z (ip), vehicle: carboxymethylcellulose (CMC) 93 % of control | dose: 60.0 mg/kg/injection, schedule: Q01DX Z (ip), vehicle: carboxymethylcellulose (CMC) 95 % of control and 88 % of control | dose: 120.0 mg/kg/injection, schedule: Q01DX Z (ip), vehicle: carboxymethylcellulose (CMC) 87 % of control and 88 % of control | dose: 240.0 mg/kg/injection, schedule: Q01DX Z (ip), vehicle: carboxymethylcellulose (CMC) 93 % of control | dose: 240.0 mg/kg/injection, schedule: Q01DX Z (oral), vehicle: carboxymethylcellulose (CMC) 102 % of control | dose: 480.0 mg/kg/injection, schedule: Q01DX Z (ip), vehicle: carboxymethylcellulose (CMC) 87 % of control | dose: 480.0 mg/kg/injection, schedule: Q01DX Z (oral), vehicle: carboxymethylcellulose (CMC) 104 % of control | dose: 960.0 mg/kg/injection, schedule: Q01DX Z (oral), vehicle: carboxymethylcellulose (CMC) 105 % of control | dose: 1920.0 mg/kg/injection, schedule: Q01DX Z (oral), vehicle: carboxymethylcellulose (CMC) 102 % of control

Cc1ccc(NC(=O)c2ccc(C)c(NC(=O)C(F)(F)F)c2)c(C)c1
inactive: dose: 50.0 mg/kg/injection, schedule: Q04DX003 (ip), vehicle: Klucel (hydroxypropylcellulose) (HPC) 97 % of control | [1] 100 % of control | [2] 95 % of control

C1=C(N2CCCCC2)C2CCC1C2 (stereo not given)
inactive: [5] 99 % of control

COC(=O)C[CH2][Ge]([CH3])([CH3])[CH3]
inactive: dose: 6.25 mg/kg/injection, schedule: Q04DX002 (ip), vehicle: saline with Tween-80 89 % of control | dose: 12.5 mg/kg/injection, schedule: Q04DX002 (ip), vehicle: saline with Tween-80 96 % of control | dose: 25.0 mg/kg/injection, schedule: Q04DX002 (ip), vehicle: saline with Tween-80 96 % of control | dose: 100.0 mg/kg/injection, schedule: Q04DX002 (ip), vehicle: saline with Tween-80 95 % of control | dose: 200.0 mg/kg/injection, schedule: Q04DX002 (ip), vehicle: saline with Tween-80 95 % of control | dose: 400.0 mg/kg/injection, schedule: Q04DX002 (ip), vehicle: saline with Tween-80 93 % of control

Cc1ccc(C(=O)C2CC2)c(C)c1
inactive: dose: 100.0 mg/kg/injection, schedule: Q01DX009 (ip), vehicle: saline with Tween-80 105 % of control | dose: 100.0 mg/kg/injection, schedule: Q04DX003 (ip), vehicle: saline with Tween-80 96 % of control | dose: 200.0 mg/kg/injection, schedule: Q01DX009 (ip), vehicle: saline with Tween-80 98 % of control | dose: 200.0 mg/kg/injection, schedule: Q04DX003 (ip), vehicle: saline with Tween-80 95 % of control | dose: 400.0 mg/kg/injection, schedule: Q01DX009 (ip), vehicle: saline with Tween-80 109 % of control | dose: 400.0 mg/kg/injection, schedule: Q04DX003 (ip), vehicle: saline with Tween-80 93 % of control

CC12CCC(C(C(=O)C3C(=O)C4(C)CCC3C4(C)C)C1=O)C2(C)C (stereo not given)
inactive: dose: 100.0 mg/kg/injection, schedule: Q01DX001 (ip), vehicle: Klucel (hydroxypropylcellulose) (HPC) 102 % of control | dose: 200.0 mg/kg/injection, schedule: Q01DX001 (ip), vehicle: Klucel (hydroxypropylcellulose) (HPC) 103 % of control | dose: 400.0 mg/kg/injection, schedule: Q01DX001 (ip), vehicle: Klucel (hydroxypropylcellulose) (HPC) 113 % of control

CC(=O)Oc1c(N)c(C)cc(C)c1F
inactive: dose: 6.0 mg/kg/injection, schedule: Q01DX001 (ip), vehicle: Klucel (hydroxypropylcellulose) (HPC) 92 % of control | dose: 12.0 mg/kg/injection, schedule: Q01DX001 (ip), vehicle: Klucel (hydroxypropylcellulose) (HPC) 92 % of control | dose: 25.0 mg/kg/injection, schedule: Q01DX001 (ip), vehicle: Klucel (hydroxypropylcellulose) (HPC) 110 % of control

N=c1nc(N)c(N)c(N)n1O
inactive: dose: 100.0 mg/kg/injection, schedule: Q01DX001 (ip), vehicle: carboxymethylcellulose (CMC) 94 % of control | dose: 200.0 mg/kg/injection, schedule: Q01DX001 (ip), vehicle: carboxymethylcellulose (CMC) 97 % of control | dose: 400.0 mg/kg/injection, schedule: Q01DX001 (ip), vehicle: carboxymethylcellulose (CMC) 97 % of control

CC[N+](C)(CC)CCNC(=O)C(c1ccccc1)c1ccccc1
inactive: [6] 100 % of control

CC/C(=C/c1ccc2c(c1)OCO2)[N+](=O)[O-]
inactive: dose: 25.0 mg/kg/injection, schedule: Q01DX001 (ip), vehicle: saline 100 % of control | dose: 50.0 mg/kg/injection, schedule: Q01DX001 (ip), vehicle: saline 100 % of control | dose: 100.0 mg/kg/injection, schedule: Q01DX001 (ip), vehicle: saline 100 % of control

O=C(CCCO)N/N=C\c1ccc([N+](=O)[O-])s1
inactive: [6] 95 % of control | dose: 200.0 mg/kg/injection, schedule: Q04DX003 (ip), vehicle: saline 93 % of control | dose: 400.0 mg/kg/injection, schedule: Q04DX003 (ip), vehicle: saline 101 % of control
